One molecule from patent US10071034B2, “Solvent compositions” (Amyris, Inc., priority 2014, dated 2018) can be followed below.

The data set in a line: Oxidative stability. It is filed as physicochemical. The procedure: For each sample, a test composition was stored for 104 weeks at 25° C. The amount of composition remaining was tested and compared to the amount at the initial time. Further samples were stored for 6 days at 60° C. The amount of composition remaining was tested and compared to the amount at the initial time.

On to `C=C(C)[C@H]1CC=C(C)CC1` [d-limonene], for which the “amount of composition remaining compared to initial” value worked out at 52.3% (6 Days @ 60° C.) and 24.0% (104 Weeks @ 25° C.). In addition, the “oxidative stability in comparison” value (d-limonene versus Example 2 composition) is “less than that of the present solvent embodiment”.
